The supplement of paper PMC10307832

What was measured:
Test in all cases: relative viability (nuclei count vs DMSO), 5 days (fraction); higher = more cells survive
[1] = compound: CO[C@@H]1[C@H](N(C)C(=O)c2ccccc2)C[C@H]2O[C@]1(C)n1c3ccccc3c3c4c(c5c6ccccc6n2c5c31)C(=O)NC4 [Midostaurin] + CC(=O)c1c(C)c2cnc(Nc3ccc(N4CCNCC4)cn3)nc2n(C2CCCC2)c1=O [Palbociclib] (partner 0.5 µM)
In short: (§1)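 One day after seeding in 1536-well plates, lung cancer cell lines were dosed by pin tool. Dosing was either single-drug or a fixed anchor-drug dose plus five library-drug doses (not always all listed) in √10 steps. After 5 days, nuclei were stained in one fix-and-stain step and counted on 4× images, and relative viability is the nuclei count of treated wells over that of vehicle wells, given as the median of duplicate plates.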

[2] = compound: CO[C@@H]1[C@H](N(C)C(=O)c2ccccc2)C[C@H]2O[C@]1(C)n1c3ccccc3c3c4c(c5c6ccccc6n2c5c31)C(=O)NC4 [Midostaurin] + CC(C)C[C@H](NC(=O)[C@H](Cc1ccccc1)NC(=O)c1cnccn1)B(O)O [Bortezomib] (partner 0.002 µM)
In short: as §1

[3] = compound: CO[C@@H]1[C@H](N(C)C(=O)c2ccccc2)C[C@H]2O[C@]1(C)n1c3ccccc3c3c4c(c5c6ccccc6n2c5c31)C(=O)NC4 [Midostaurin] + C[C@]1(O)C[C@@H](c2nc(-c3ccc4ccc(-c5ccccc5)nc4c3)c3c(N)nccn32)C1 [Linsitinib] (partner 1 µM)
In short: as §1

[4] = compound: COc1cc(-c2nn([C@H]3CC[C@H](N4CCN(C(C)=O)CC4)CC3)c3ncnc(N)c23)ccc1NC(=O)c1cc2ccccc2n1C + Cc1nc(Nc2ncc(C(=O)Nc3c(C)cccc3Cl)s2)cc(N2CCN(CCO)CC2)n1 [Dasatinib] (partner 0.075 µM)
In short: as §1

[5] = compound: COc1cc(-c2nn([C@H]3CC[C@H](N4CCN(C(C)=O)CC4)CC3)c3ncnc(N)c23)ccc1NC(=O)c1cc2ccccc2n1C + O=C(CCCCCCC(=O)Nc1ccccc1)NO [Vorinostat] (partner 1 µM)
In short: as §1

Row | Cell Line | relative viability ([1]; first compound 0.01 µM) | relative viability ([1]; first compound 0.03162 µM) | relative viability ([1]; first compound 0.1 µM) | relative viability ([1]; first compound 0.3162 µM) | relative viability ([2]; first compound 0.01 µM) | relative viability ([2]; first compound 0.03162 µM) | relative viability ([2]; first compound 0.1 µM) | relative viability ([2]; first compound 0.3162 µM) | relative viability ([3]; first compound 0.01 µM) | relative viability ([3]; first compound 0.03162 µM) | relative viability ([3]; first compound 0.1 µM) | relative viability ([3]; first compound 0.3162 µM) | relative viability ([4]; first compound 0.0128 µM) | relative viability ([4]; first compound 0.04048 µM) | relative viability ([4]; first compound 0.128 µM) | relative viability ([4]; first compound 1.28 µM) | relative viability ([5]; first compound 0.0128 µM) | relative viability ([5]; first compound 0.04048 µM) | relative viability ([5]; first compound 0.128 µM) | relative viability ([5]; first compound 1.28 µM)
1 | 201T | 0.366 | 0.368 | 0.35 | 0.406 | 1.08 | 1.04 | 1.05 | 1.13 | 1.05 | 1 | 1.07 | 1.04 | 0.617 | 0.511 | 0.537 | 0.448 | 1.01 | 1.1 | 0.909 | 0.654
2 | A549 | – | – | – | – | – | – | – | – | 0.609 | 0.59 | 0.511 | 0.423 | – | – | – | – | – | – | – | –
3 | A-427 | 0.486 | 0.566 | 0.513 | 0.508 | 0.961 | 0.939 | 0.992 | 0.899 | 1.14 | 1.08 | 1.09 | 1.09 | 0.744 | – | 0.65 | 0.856 | 0.9 | 0.972 | 0.763 | 0.856
4 | ABC-1 | 0.709 | 1.01 | 0.679 | 0.559 | 0.316 | 0.289 | 0.285 | 0.292 | 0.854 | 0.546 | 0.628 | 0.727 | 0.613 | 0.505 | 0.542 | 0.688 | 1.21 | 0.965 | 1.19 | 1.14
5 | BEN | 0.515 | 0.473 | 0.52 | 0.467 | 0.797 | 0.841 | 0.909 | 1.09 | 0.926 | 0.905 | 1.02 | 0.978 | 0.251 | 0.32 | 0.351 | 0.318 | 0.591 | 0.561 | 0.59 | 0.483
6 | CAL-12T | 0.513 | 0.492 | 0.405 | 0.308 | 1 | 0.922 | 0.88 | 0.796 | 0.721 | 0.672 | 0.808 | 0.676 | 0.418 | 0.252 | 0.487 | 0.436 | 0.871 | 0.706 | 0.702 | 0.753
7 | COR-L23 | 0.259 | 0.346 | 0.285 | 0.207 | 0.871 | 0.957 | 0.936 | 0.81 | 0.863 | 0.802 | 0.764 | 0.764 | 0.503 | 0.529 | 0.462 | 0.665 | 0.528 | 0.615 | 0.42 | 0.558
8 | COR-L 105 | 0.414 | 0.416 | 0.396 | 0.4 | 0.823 | 0.804 | 0.668 | 0.499 | 0.818 | 0.922 | 0.766 | 0.727 | 0.323 | 0.448 | 0.287 | 0.362 | 0.75 | 1.04 | 0.907 | 0.584
9 | Calu-6 | – | – | – | – | 0.934 | 0.973 | 0.96 | 0.791 | 0.946 | 0.889 | 1 | 0.922 | – | – | – | – | – | – | – | –
10 | ChaGo-K-1 | 0.912 | 1 | 0.889 | 0.935 | 0.985 | 1.28 | 0.759 | 1.12 | – | – | – | – | 0.693 | 0.62 | 0.568 | 0.621 | 0.802 | 0.768 | 0.679 | 0.555
11 | EBC-1 | – | – | – | – | 0.756 | 0.485 | 0.502 | 0.427 | 0.901 | 0.735 | 0.873 | 0.24 | – | – | – | – | – | – | – | –
12 | EKVX | 0.443 | 0.45 | 0.362 | 0.401 | 1.01 | 0.995 | 0.947 | 0.9 | 0.953 | 1.03 | 0.943 | 0.892 | 0.859 | 0.611 | 0.505 | 0.385 | 0.966 | 0.801 | 0.674 | 0.382
13 | EMC-BAC-2 | 0.489 | 0.531 | 0.489 | 0.456 | 1.08 | 0.998 | 1.04 | 1.1 | 0.84 | 0.777 | 0.669 | 0.765 | 0.309 | 0.391 | 0.244 | 0.481 | 0.466 | 0.602 | 0.418 | 0.504
14 | EPLC-272H | 0.291 | 0.355 | 0.302 | 0.3 | 0.921 | 0.927 | 1.05 | 1.11 | 1.08 | 1.11 | 1.17 | 1.22 | 0.407 | – | 0.391 | 0.347 | 0.357 | 0.345 | 0.62 | 0.457
15 | H3255 | 0.317 | 0.327 | 0.333 | 0.342 | 0.857 | 0.832 | 0.731 | 0.789 | 0.948 | 0.875 | 0.953 | 1 | 0.345 | 0.313 | 0.434 | 0.307 | 1.01 | 0.725 | 0.824 | 0.708
16 | HARA | 0.316 | 0.283 | 0.278 | 0.242 | 1.12 | 1.03 | 1.07 | 1.12 | 0.936 | 0.979 | 0.877 | 0.969 | 0.259 | 0.21 | 0.269 | 0.236 | 0.698 | 0.372 | 0.421 | 0.325
17 | HCC-15 | 0.806 | 0.788 | 0.771 | 0.73 | 1.04 | 0.946 | 0.999 | 1.08 | 0.886 | 0.898 | 0.904 | 0.818 | 0.638 | 0.593 | 0.684 | 0.731 | 0.954 | 0.752 | 0.85 | 0.698
18 | HCC-44 | 1.01 | 1.02 | 0.942 | 0.99 | 0.84 | 0.881 | 0.796 | 0.762 | 0.756 | 0.659 | 0.579 | 0.609 | – | – | – | – | 1.24 | 1.1 | 1.12 | 1.18
